One test has as its target T7 RNA polymerase (Escherichia phage T7, UniProt P00573). Briefly: In vitro transcription yield of mRNA using cap analogs. The following applies: for Yield per unit template: in vitro transcription, 1 μg DNA template, 37° C., 2 hours. Type of test: biochemical. In a few lines: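 Linearized plasmid template transcribed by T7 RNA polymerase with NTPs, cap analog, nuclease inhibitor and inorganic pyrophosphatase for 2 h at 37° C., then DNase I 30 min at 37° C. mRNA was ethanol-washed, redissolved and purified, and yield recorded.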

For a further test, the system named is HEK293T cells. Kind of test: Translation efficiency of different capped luciferase mRNAs. Type of test: cell-based. The following applies: for Relative fluorescence intensity: HEK293T, 0.5 μg mRNA per well, 24 hours, proportional to translation efficiency; for Multiple of m6A (relative fluorescence intensity): relative to m6A. In a few lines: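 HEK293T cells were transfected with 0.5 μg capped luciferase mRNA per well (Lipofectamine MessengerMAX) and cultured 24 h at 37 °C. Lysates were mixed with Dual-Lumi II reagent for 5 min at about 25 °C; luminescence served as the measure of translation efficiency.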

The next test concerns BALB/C mice. Kind of test: In vivo imaging of Fluc-mRNA LNP expression in mice. In a few lines: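 Female BALB/C mice (4-6 weeks, 17-19 g) received LNP carrying 5 μg cap analog-transcribed Fluc-mRNA intramuscularly. At 6-168 h, imaging substrate was given intraperitoneally and total radiance (p/s) read by IVIS 5 min later; values are expressed as fold relative to the m6A group.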

[1] abbreviates: 6 h, 5 μg Fluc-mRNA LNP intramuscular, mice.
Where [2] appears, read: 12 h, 5 μg Fluc-mRNA LNP intramuscular, mice.
[3] abbreviates: 24 h, 5 μg Fluc-mRNA LNP intramuscular, mice.
Setting [4] is: 48 h, 5 μg Fluc-mRNA LNP intramuscular, mice.
The mark [5] stands for this setting: 96 h, 5 μg Fluc-mRNA LNP intramuscular, mice.
[6] abbreviates: 168 h, 5 μg Fluc-mRNA LNP intramuscular, mice.

Sequence of T7 RNA polymerase (P00573 whole entry): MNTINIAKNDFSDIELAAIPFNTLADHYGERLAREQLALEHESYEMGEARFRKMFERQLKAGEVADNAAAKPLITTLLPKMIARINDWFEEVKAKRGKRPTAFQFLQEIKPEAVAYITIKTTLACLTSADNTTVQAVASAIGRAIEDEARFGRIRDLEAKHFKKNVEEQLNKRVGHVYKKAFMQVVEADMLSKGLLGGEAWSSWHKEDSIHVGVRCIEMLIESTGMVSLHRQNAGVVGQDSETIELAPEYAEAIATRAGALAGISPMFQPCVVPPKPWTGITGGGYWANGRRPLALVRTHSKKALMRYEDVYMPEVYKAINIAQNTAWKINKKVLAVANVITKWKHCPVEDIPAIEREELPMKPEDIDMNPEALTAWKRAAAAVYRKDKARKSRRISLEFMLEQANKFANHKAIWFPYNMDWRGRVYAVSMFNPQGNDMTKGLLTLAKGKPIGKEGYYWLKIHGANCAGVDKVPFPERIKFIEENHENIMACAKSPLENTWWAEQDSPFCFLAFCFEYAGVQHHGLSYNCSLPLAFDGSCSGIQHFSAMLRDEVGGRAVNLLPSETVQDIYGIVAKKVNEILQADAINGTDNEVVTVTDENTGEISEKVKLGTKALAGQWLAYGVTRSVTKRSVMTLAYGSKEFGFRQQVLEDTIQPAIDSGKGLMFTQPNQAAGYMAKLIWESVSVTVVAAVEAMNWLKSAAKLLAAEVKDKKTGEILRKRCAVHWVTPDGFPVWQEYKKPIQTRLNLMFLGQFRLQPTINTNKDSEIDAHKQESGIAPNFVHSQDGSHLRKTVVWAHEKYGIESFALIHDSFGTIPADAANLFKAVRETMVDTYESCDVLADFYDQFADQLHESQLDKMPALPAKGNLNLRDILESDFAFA

On to `CO[C@@H]1[C@H](OP(=O)(O)OC[C@H]2O[C@@H](n3cnc4c(=O)[nH]c(N)nc43)[C@H](O)[C@@H]2O)[C@@H](COP(=O)(O)OP(=O)(O)OP(=O)(O)OC[C@H]2O[C@@H]([n+]3cn(C)c4c(=O)[nH]c(N)nc43)[C@H](O)[C@@H]2C(C)F)O[C@H]1n1cnc2c(N)ncnc21` (some centres unmarked) [YK-CAP-109], for which, on T7 RNA polymerase, the “Yield per unit template” value was found to be 168.1 µg. The “Increase relative to 5227 (in vitro transcription yield)” value at T7 RNA polymerase came to 25.3%. This compound also had a Relative fluorescence intensity in the test with HEK293T cells of 1.53. In the test on HEK293T cells, the “Multiple of m6A (relative fluorescence intensity)” value came out at 4.0. For the same compound, the “Multiple of total radiation intensity relative to m6A” value in the test with BALB/C mice (6 h) came out at 2.6; in the test on BALB/C mice (12 h), 2.8; in the test with BALB/C mice (24 h), 2.8; in the test on BALB/C mice (48 h), 1.0; with BALB/C mice (96 h), 2.7. The Total radiation intensity with BALB/C mice (setting [1]) is 6.04 ×108 p/s; with BALB/C mice (setting [2]), 5.84 ×108 p/s; in the test on BALB/C mice (setting [3]), 1.85 ×108 p/s; in the test with BALB/C mice (setting [4]) it was 0.54 ×108 p/s; in the test with BALB/C mice (setting [5]), 0.14 ×108 p/s; in the test with BALB/C mice (setting [6]), 0.03 ×108 p/s.

In the case of `CO[C@@H]1[C@H](OP(=O)(O)OC[C@H]2O[C@@H](n3cnc4c(=O)[nH]c(N)nc43)[C@H](O)[C@@H]2O)[C@@H](COP(=O)(O)OP(=O)(O)OP(=O)(O)OC[C@H]2OC([n+]3cn(C)c4c(=O)[nH]c(N)nc43)[C@H](O)[C@@H](O)[C@@H]2O)O[C@H]1n1cnc2c(N)ncnc21` (some centres unmarked) [YK-CAP-101], on T7 RNA polymerase, the “Yield per unit template” value came out at 32.5 µg. The “Increase relative to 5227 (in vitro transcription yield)” value at T7 RNA polymerase is −75.8%. The compound further yielded a Relative fluorescence intensity in the test on HEK293T cells of 0.22. Further, in the test on HEK293T cells, the “Multiple of m6A (relative fluorescence intensity)” value was found to be 0.6. Besides, the “Multiple of total radiation intensity relative to m6A” value with BALB/C mice (6 h) turned out to be 0.8; in the test on BALB/C mice (12 h) it was 0.5; with BALB/C mice (24 h) it was 0.5; in the test on BALB/C mice (48 h), 0.4; in the test with BALB/C mice (96 h), 1.5. Moreover, the Total radiation intensity was 1.81 ×108 p/s in the test with BALB/C mice (setting [1]); 0.96 ×108 p/s in the test with BALB/C mice (setting [2]); 0.36 ×108 p/s in the test on BALB/C mice (setting [3]); 0.19 ×108 p/s in the test with BALB/C mice (setting [4]); 0.04 ×108 p/s in the test with BALB/C mice (setting [5]); 0.02 ×108 p/s in the test with BALB/C mice (setting [6]). Besides, the Total radiation intensity with BALB/C mice (at 12 hours) is listed as 0.96 ×10^8 p/s; with BALB/C mice (at 48 hours) it was 0.19 ×10^8 p/s.

These data come from patent US12576099B2, “Ribose-modified cap analog and use thereof” (Beijing Youcare Kechuang Pharmaceutical Technology Co., Ltd., priority 2024, dated 2026).
